Experimental data from publication PMC6749389, “Synthesis and In Vitro Anti-Toxoplasma gondii Activity of Novel Thiazolidin-4-one Derivatives” (Molecules, 2019).

Assays:
[1] = Cytotoxic assay (MTT, ISO 10993-5:2009(E)), 24 h treatment; assay type: cell-based; details: L929 mouse fibroblast cells, L929 mouse fibroblasts, values above highest tested concentration extrapolated
Description: The L929 mouse fibroblast (ATTC® CCL-1™, Manassas, VA, USA) were culturing according to the ATCC product sheet. […] The cell viability assay were performed precisely according to international standards (ISO 10993-5:2009(E)), using the tetrazolium salt [3-(4,5-dimethylthiazol-2-yl)-2,5-diphenyltetrazolium bromide] (MTT, Sigma-Aldrich) and mouse fibroblasts L929 cells. Cells (1 × 10^4 per well) were treated 24 h with compounds or drug in different concentration range. The optical density at 570 nm on the ELISA reader (Multiskan EX, Labsystems, Vienna, VA, USA), was read. The results were expressed as a percentage of viability compared to untreated cells. […] The CC30/CC50 represents the concentration of tested compounds or drugs that was required for 30% or 50% cells proliferation inhibition in vitro. According to the previously mentioned ISO 10993-5:2009(E) norm, the CC30 value is recognized as non-cytotoxic concentration for the cell line. All experiments were performed in triplicate.

[2] = tested on: T. gondii tachyzoites (RH strain); experiment: In vitro anti-T. gondii activity, [3H]-uracil incorporation assay in infected Hs27 cells; assay type: cell-based, Toxoplasma gondii; details: for IC50: Toxoplasma gondii, T. gondii RH tachyzoites proliferation in Hs27 cells, na = not active in the tested concentration range; for SR (selectivity ratio): ratio of CC50 (L929) to IC50 (T. gondii)

Row | SMILES | melting point [°C] | CC50 at 24 h [1] [µM] | IC50 [2] [µM] | SR (selectivity ratio) [2] | inhibition of proliferation, fold better than sulfadiazine + trimethoprim (5:1) ([2]; relative to sulfadiazine + trimethoprim (5:1)) [fold]
1 | O=C(O)CC1SC(=NN=Cc2ccccc2O)N(c2ccccc2)C1=O (stereo not drawn) [Compound 74, [2-{[(2-Hydroxyphenyl)methylidene]hydrazinylidene}-4-oxo-3-phenyl-1,3-thiazolidin-5-yl]acetic acid] | 228 to 230 | 501 | – | – | –
2 | O=C1CSC(=NN=Cc2ccc(O)cc2)N1c1ccc(F)cc1 [Compound 69, 3-(4-Fluorophenyl)-2-{[(4-hydroxyphenyl)methylidene]hydrazinylidene}-1,3-thiazolidin-4-one] | – | 386 | – | – | –
3 | O=C1CSC(=NN=Cc2ccc(O)cc2)N1c1ccccc1Cl [Compound 50, 3-(2-Chlorophenyl)-2-{[(4-hydroxyphenyl)methylidene]hydrazinylidene}-1,3-thiazolidin-4-one] | 178 to 180 | 226 | – | – | –
4 | O=C1CSC(=NN=Cc2cccc(O)c2)N1c1ccc(Br)cc1 [Compound 65, 3-(4-Bromophenyl)-2-{[(3-hydroxyphenyl)methylidene]hydrazinylidene}-1,3-thiazolidin-4-one] | 242 to 244 | 83.5 | – | – | –
5 | O=C1CSC(=NN=Cc2ccc(O)cc2)N1c1ccc(Cl)cc1 [Compound 59, 3-(4-Chlorophenyl)-2-{[(4-hydroxyphenyl)methylidene]hydrazinylidene}-1,3-thiazolidin-4-one] | 280 to 282 | 318 | – | – | –
6 | O=C1CSC(=NN=Cc2ccc(O)cc2)N1c1ccccc1 [Compound 43, 2-{[(4-Hydroxyphenyl)methylidene]hydrazinylidene}-3-phenyl-1,3-thiazolidin-4-one] | – | 485 | – | – | –
7 | COc1cc(C=NN=C2SC(CC(=O)O)C(=O)N2c2ccccc2)ccc1O (stereo not drawn) [Compound 77, [2-{[(4-Hydroxy-3-methoxyphenyl)methylidene]hydrazinylidene}-4-oxo-3-phenyl-1,3-thiazolidin-5-yl]acetic acid] | – | ≥ 1000 | – | – | –
8 | O=C1CSC(=NN=Cc2ccc(O)cc2)N1c1cccc(Cl)c1 [Compound 54, 3-(3-Chlorophenyl)-2-{[(4-hydroxyphenyl)methylidene]hydrazinylidene}-1,3-thiazolidin-4-one] | 262 to 264 | 289 | – | – | –
9 | O=C1CSC(=NN=Cc2cccc(O)c2)N1c1ccccc1Cl [Compound 49, 3-(2-Chlorophenyl)-2-{[(3-hydroxyphenyl)methylidene]hydrazinylidene}-1,3-thiazolidin-4-one] | 192 to 194 | 188 | – | – | –
10 | O=C1CSC(=NN=Cc2cccc(O)c2)N1c1cccc(Cl)c1 [Compound 53, 3-(3-Chlorophenyl)-2-{[(3-hydroxyphenyl)methylidene]hydrazinylidene}-1,3-thiazolidin-4-one] | 198 to 200 | 113 | – | – | –
11 | O=C1CSC(=NN=Cc2cccc(O)c2)N1c1ccc(Cl)cc1 [Compound 58, 3-(4-Chlorophenyl)-2-{[(3-hydroxyphenyl)methylidene]hydrazinylidene}-1,3-thiazolidin-4-one] | 230 to 232 | 173 | – | – | –
12 | O=C1CSC(=NN=Cc2cccc(O)c2)N1c1ccc(F)cc1 [Compound 68, 3-(4-Fluorophenyl)-2-{[(3-hydroxyphenyl)methylidene]hydrazinylidene}-1,3-thiazolidin-4-one] | 204 to 206 | 180 | – | – | –
13 | O=C1CSC(=NN=Cc2cccc(O)c2)N1c1ccccc1 [Compound 42, 2-{[(3-Hydroxyphenyl)methylidene]hydrazinylidene}-3-phenyl-1,3-thiazolidin-4-one] | 235 to 236 | 234 | – | – | –
14 | Nc1ccc(S(=O)(=O)Nc2ncccn2)cc1 [Sulfadiazine, 4-amino-N-(2-pyrimidinyl)benzenesulfonamide, reference compound] | – | ≥ 10000 | 10900 | ≥0.92 | –
15 | O=C1CSC(=NN=Cc2ccc(O)cc2)N1c1ccc(Br)cc1 [Compound 66, 3-(4-Bromophenyl)-2-{[(4-hydroxyphenyl)methylidene]hydrazinylidene}-1,3-thiazolidin-4-one] | 288 to 290 | 247 | – | – | –
16 | CCOc1cc(C=NN=C2SCC(=O)N2c2ccc(Cl)cc2)ccc1O [Compound 61, 3-(4-Chlorophenyl)-2-{[(3-ethoxy-4-hydroxyphenyl)methylidene]hydrazinylidene}-1,3-thiazolidin-4-one] | 218 to 220 | – | – | – | –
17 | O=C1CSC(=NN=Cc2ccc(O)c(Br)c2)N1c1ccc(Cl)cc1 [Compound 63, 2-{[(3-Bromo-4-hydroxyphenyl)methylidene]hydrazinylidene}-3-(4-chlorophenyl)-1,3-thiazolidin-4-one] | 235 to 236 | – | – | – | –
18 | CCOc1cc(C=NN=C2SCC(=O)N2c2ccccc2Cl)ccc1O [Compound 51, 3-(2-Chlorophenyl)-2-{[(3-ethoxy-4-hydroxyphenyl)methylidene]hydrazinylidene}-1,3-thiazolidin-4-one] | 196 to 198 | – | – | – | –

Second part, led by results:

Row | melting point [°C] | SMILES | CC50 at 24 h [1] [µM] | IC50 [2] [µM] | SR (selectivity ratio) [2] | inhibition of proliferation, fold better than sulfadiazine + trimethoprim (5:1) ([2]; relative to sulfadiazine + trimethoprim (5:1)) [fold]
19 | 252 to 254 | O=C(O)CC1SC(=NN=Cc2ccc(O)c(Br)c2)N(c2ccccc2)C1=O (stereo not drawn) [Compound 80, [2-{[(3-Bromo-4-hydroxyphenyl)methylidene]hydrazinylidene}-4-oxo-3-phenyl-1,3-thiazolidin-5-yl]acetic acid] | ≥ 1000 | – | – | –
20 | 224 to 226 | CCOc1cc(C=NN=C2SC(CC(=O)O)C(=O)N2c2ccccc2)ccc1O (stereo not drawn) [Compound 78, [2-{[(3-Ethoxy-4-hydroxyphenyl)methylidene]hydrazinylidene}-4-oxo-3-phenyl-1,3-thiazolidin-5-yl]acetic acid] | ≥ 1000 | – | – | –
21 | 254 to 256 | COc1cc(C=NN=C2SC(CC(=O)O)C(=O)N2c2ccc(Cl)cc2)ccc1O (stereo not drawn) [Compound 84, [3-(4-Chlorophenyl)-2-{[(4-hydroxy-3-methoxyphenyl)methylidene]hydrazinylidene}-4-oxo-1,3-thiazolidin-5-yl]acetic acid] | 827 | 220 | 3.76 | –
22 | 250 to 251 | COC(=O)C=C1SC(=NN=Cc2ccc(O)cc2)N(c2ccc(Cl)cc2)C1=O [Compound 99, Methyl [3-(4-chlorophenyl)-2-{[(4-hydroxyphenyl)methylidene]hydrazinylidene}-4-oxo-1,3-thiazolidin-5-ylidene]acetate] | 230 | – | – | –
23 | 236 to 238 | COC(=O)C=C1SC(=NN=Cc2ccc(O)c(Br)c2)N(c2ccccc2)C1=O [Compound 95, Methyl [2-{[(3-bromo-4-hydroxyphenyl)methylidene]hydrazinylidene}-4-oxo-3-phenyl-1,3-thiazolidin-5-ylidene]acetate] | 428 | 28.3 | 15.11 | 18
24 | 190 to 192 | CCOc1cc(C=NN=C2SC(=CC(=O)OC)C(=O)N2c2ccccc2)ccc1O [Compound 93, Methyl [2-{[(3-ethoxy-4-hydroxyphenyl)methylidene]hydrazinylidene}-4-oxo-3-phenyl-1,3-thiazolidin-5-ylidene]acetate] | 463 | 191 | 2.42 | –
25 | 224 to 226 | CCOc1cc(C=NN=C2SC(CC(=O)O)C(=O)N2c2ccc(Cl)cc2)ccc1O (stereo not drawn) [Compound 85] | 759 | 165 | 4.59 | –
26 | 222 to 224 | COC(=O)C=C1SC(=NN=Cc2cccc(O)c2)N(c2ccc(Cl)cc2)C1=O [Compound 98, Methyl [3-(4-chlorophenyl)-2-{[(3-hydroxyphenyl)methylidene]hydrazinylidene}-4-oxo-1,3-thiazolidin-5-ylidene]acetate] | 167 | – | – | –
27 | 242 to 244 | COC(=O)C=C1SC(=NN=Cc2ccccc2O)N(c2ccccc2)C1=O [Compound 89, Methyl [2-{[(2-hydroxyphenyl)methylidene]hydrazinylidene}-4-oxo-3-phenyl-1,3-thiazolidin-5-ylidene]acetate] | 304 | – | – | –
28 | 244 to 246 | O=C(O)CC1SC(=NN=Cc2ccc(O)c(Cl)c2)N(c2ccccc2)C1=O (stereo not drawn) [Compound 79, [2-{[(3-Chloro-4-hydroxyphenyl)methylidene]hydrazinylidene}-4-oxo-3-phenyl-1,3-thiazolidin-5-yl]acetic acid] | ≥ 1000 | – | – | –
29 | 236 to 238 | O=C(O)CC1SC(=NN=Cc2ccc(O)cc2)N(c2ccccc2)C1=O (stereo not drawn) [Compound 76, [2-{[(4-Hydroxyphenyl)methylidene]hydrazinylidene}-4-oxo-3-phenyl-1,3-thiazolidin-5-yl]acetic acid] | ≥ 1000 | – | – | –
30 | 214 to 216 | O=C(O)CC1SC(=NN=Cc2cccc(O)c2)N(c2ccccc2)C1=O (stereo not drawn) [Compound 75, [2-{[(3-Hydroxyphenyl)methylidene]hydrazinylidene}-4-oxo-3-phenyl-1,3-thiazolidin-5-yl]acetic acid] | ≥ 1000 | – | – | –
31 | 236 to 238 | COC(=O)C=C1SC(=NN=Cc2cccc(O)c2)N(c2ccccc2)C1=O [Compound 90, Methyl [2-{[(3-hydroxyphenyl)methylidene]hydrazinylidene}-4-oxo-3-phenyl-1,3-thiazolidin-5-ylidene]acetate] | 234 | – | – | –
